Laboratory results reported in ChEMBL document CHEMBL1201862, “PubChem BioAssay data set” (2004).
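Cultured in 96-well plates, cells were exposed to test compound for 48 hours across five concentrations. GI50 = concentration required for 50% inhibition of growth.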 Activity calls are given as the source filed them. Rule as the data show it: active = GI50 up to about 1.1 µM and inactive = higher.

Columns and labels:
Experiment in all cases: growth of human tumour cells (NCI), 48 h
SK-MEL-2 = tested on: SK-MEL-2
RXF 393 = tested on: RXF 393
OVCAR-3 = tested on: OVCAR-3
SW-620 = tested on: SW-620
NCI/ADR-RES = tested on: NCI/ADR-RES
HOP-92 = tested on: HOP-92
SR = tested on: SR
OVCAR-4 = tested on: OVCAR-4
UACC-257 = tested on: UACC-257
SNB-19 = tested on: SNB-19
IGROV-1 = tested on: IGROV-1
HCT-116 = tested on: HCT-116
SNB-75 = tested on: SNB-75
NCI-H522 = tested on: NCI-H522
KM12 = tested on: KM12
HL-60 = tested on: HL-60
NCI-H226 = tested on: NCI-H226
HCC 2998 = tested on: HCC 2998
SF-539 = tested on: SF-539
CCRF-CEM = tested on: CCRF-CEM

Measured: GI50

O=C(O)c1cc(O)nc(SCc2ccccc2)n1
inactive: SK-MEL-2 > 100 µM | RXF 393 > 100 µM | OVCAR-3 > 100 µM | SW-620 > 100 µM | NCI/ADR-RES > 100 µM | HOP-92 > 100 µM | SR > 100 µM | OVCAR-4 > 100 µM | UACC-257 > 100 µM | SNB-19 > 100 µM | IGROV-1 > 100 µM | HCT-116 > 100 µM | SNB-75 > 100 µM | NCI-H522 > 100 µM | KM12 > 100 µM | HL-60 > 100 µM | NCI-H226 > 100 µM

CC1=CC(C)(C)Nc2ccc(CSc3ccccc3)cc21
inactive: SK-MEL-2 23.4 µM | RXF 393 16.3 µM | HCC 2998 17.2 µM | SF-539 44.8 µM | OVCAR-3 18.7 µM | SW-620 23 µM | NCI/ADR-RES 41.9 µM | HOP-92 34.8 µM | OVCAR-4 21.1 µM | UACC-257 26.7 µM | SNB-19 37.7 µM | IGROV-1 52.1 µM | HCT-116 26.4 µM | SNB-75 24.7 µM | NCI-H522 16.8 µM | KM12 26.2 µM | NCI-H226 48.4 µM

O=C1CCC2(c3ccccc3)Nc3ccncc3N12 (stereo not given)
inactive: SK-MEL-2 > 10 µM | SF-539 > 10 µM | OVCAR-3 > 10 µM | SW-620 > 10 µM | CCRF-CEM > 10 µM | NCI/ADR-RES > 10 µM | HOP-92 > 10 µM | SR > 10 µM | OVCAR-4 > 10 µM | UACC-257 > 10 µM | SNB-19 > 10 µM | HCT-116 > 10 µM | SNB-75 > 10 µM | NCI-H522 > 10 µM | KM12 > 10 µM | HL-60 > 10 µM | NCI-H226 > 10 µM

CC[C@@H]1CC[C@@H]2[C@H](CC[C@]3(C)[C@@H](O)CC[C@@H]23)[C@H]1C(=O)O
inactive: SK-MEL-2 > 100 µM | RXF 393 > 100 µM | HCC 2998 > 100 µM | SF-539 > 100 µM | OVCAR-3 > 100 µM | SW-620 > 100 µM | CCRF-CEM > 100 µM | NCI/ADR-RES > 100 µM | HOP-92 > 100 µM | OVCAR-4 > 100 µM | UACC-257 > 100 µM | SNB-19 > 100 µM | IGROV-1 > 100 µM | HCT-116 > 100 µM | SNB-75 18.8 µM | NCI-H522 > 100 µM | KM12 > 100 µM | HL-60 > 100 µM | NCI-H226 > 100 µM

C/C=C/C(=O)N1C(=O)OC[C@@H]1c1ccccc1
inactive: SK-MEL-2 19.1 µM | RXF 393 18.5 µM | HCC 2998 23.1 µM | SF-539 21.9 µM | OVCAR-3 18 µM | SW-620 24.6 µM | CCRF-CEM 23 µM | NCI/ADR-RES 22.4 µM | HOP-92 20.6 µM | OVCAR-4 23 µM | UACC-257 20.4 µM | SNB-19 20.4 µM | IGROV-1 19.4 µM | HCT-116 19.9 µM | SNB-75 12.8 µM | NCI-H522 20.4 µM | KM12 14.7 µM | HL-60 21.9 µM | NCI-H226 22.2 µM

O=C(/C=C/c1ccc(OCc2ccccc2)cc1)NCc1ccc(C(=O)NCCc2ccccc2)cc1
inactive: SK-MEL-2 > 100 µM | RXF 393 64.1 µM | HCC 2998 > 100 µM | SF-539 > 100 µM | OVCAR-3 > 100 µM | SW-620 > 100 µM | CCRF-CEM 11.4 µM | NCI/ADR-RES > 100 µM | HOP-92 > 100 µM | OVCAR-4 > 100 µM | UACC-257 > 100 µM | SNB-19 > 100 µM | IGROV-1 > 100 µM | HCT-116 > 100 µM | SNB-75 > 100 µM | NCI-H522 > 100 µM | KM12 > 100 µM | NCI-H226 > 100 µM

NC(CSCc1ccc(I)cc1)C(=O)O (stereo not given)
inactive: SK-MEL-2 > 100 µM | RXF 393 > 100 µM | HCC 2998 > 100 µM | OVCAR-3 > 100 µM | SW-620 > 100 µM | CCRF-CEM > 100 µM | NCI/ADR-RES > 100 µM | HOP-92 > 100 µM | OVCAR-4 > 100 µM | UACC-257 > 100 µM | SNB-19 > 100 µM | IGROV-1 > 100 µM | HCT-116 > 100 µM | SNB-75 > 100 µM | NCI-H522 > 100 µM | KM12 > 100 µM | HL-60 > 100 µM | NCI-H226 > 100 µM

COc1ccc2c(c1)N(C(C)=O)CN1C(=O)CCC21 (stereo not given)
inactive: SK-MEL-2 > 100 µM | RXF 393 > 100 µM | HCC 2998 > 100 µM | SF-539 > 100 µM | OVCAR-3 > 100 µM | SW-620 > 100 µM | CCRF-CEM 41.7 µM | NCI/ADR-RES > 100 µM | HOP-92 > 100 µM | OVCAR-4 > 100 µM | UACC-257 > 100 µM | SNB-19 > 100 µM | IGROV-1 > 100 µM | HCT-116 > 100 µM | SNB-75 > 100 µM | NCI-H522 > 100 µM | KM12 > 100 µM | HL-60 48.2 µM | NCI-H226 > 100 µM

CC(=O)n1cc(OP(=O)(Oc2ccccc2)Oc2ccccc2)c2ccccc21
inactive: SK-MEL-2 22.2 µM | SF-539 15.8 µM | OVCAR-3 24.2 µM | SW-620 44.2 µM | CCRF-CEM 22.9 µM | NCI/ADR-RES 16.7 µM | SR 10.9 µM | OVCAR-4 29.6 µM | UACC-257 25.7 µM | SNB-19 58.9 µM | IGROV-1 8.53 µM | HCT-116 21.4 µM | KM12 35.6 µM | HL-60 16 µM | NCI-H226 27.7 µM

CCCCCCCCCCCCCCCC(=O)OCC(COP(=O)(O)OCCNC(=O)CCSSc1ccccn1)OC(=O)CCCCCCCCCCCCCCC (stereo not given)
inactive: SK-MEL-2 > 100 µM | RXF 393 > 100 µM | SF-539 > 100 µM | OVCAR-3 > 100 µM | SW-620 > 100 µM | CCRF-CEM > 100 µM | NCI/ADR-RES > 100 µM | HOP-92 > 100 µM | SR > 100 µM | OVCAR-4 > 100 µM | UACC-257 > 100 µM | SNB-19 > 100 µM | IGROV-1 > 100 µM | HCT-116 > 100 µM | SNB-75 > 100 µM | NCI-H522 > 100 µM | KM12 > 100 µM | HL-60 > 100 µM | NCI-H226 > 100 µM

CN1C(=O)C2CCC(=O)N2c2cccnc21 (stereo not given)
inactive: SK-MEL-2 > 100 µM | HCC 2998 > 100 µM | SF-539 > 100 µM | OVCAR-3 > 100 µM | SW-620 > 100 µM | CCRF-CEM > 100 µM | NCI/ADR-RES > 100 µM | SR > 100 µM | OVCAR-4 > 100 µM | UACC-257 > 100 µM | SNB-19 > 100 µM | IGROV-1 > 100 µM | HCT-116 > 100 µM | NCI-H522 > 100 µM | KM12 > 100 µM | HL-60 > 100 µM | NCI-H226 > 100 µM
